Assay: gradient 5% acetonitrile 3 min, to 50% in 2 min, to 85% in 15 min, held 3 min, 100 µL/min
Conditions: column: Zorbax Extend-C18 2.1 x 50 mm; eluents: water / acetonitrile, 0.1% formic acid
In short: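 Mixtures of ~100 pure standards were chromatographed on a Zorbax Extend-C18 column (2.1 × 50 mm, 1.8 μm) at 100 μL/min using water and acetonitrile, each with 0.1% formic acid. Detection used a quadrupole time-of-flight mass spectrometer in positive and negative ionization mode, and data collection spanned 3 months. Retention time was obtained from adduct peaks picked computationally and each checked manually.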

Row | Compound | RP-LC retention time [s]
1 | CCN(CC)S(=O)(=O)c1ccc(C)c(NC(=O)c2ccccc2C(=O)O)c1 | 575
2 | O=c1n(Cc2ccc3c(c2)OCO3)nc2c(S(=O)(=O)N3CCOCC3)cccn12 | 736
3 | COc1cccc(-c2nc(C3CCN(C(=O)c4n[nH]c5c4CCCC5)CC3)no2)c1 | 847
4 | Cc1ncc2c(n1)C[C@@H]1CC[C@H]2N1C(=O)Nc1ccc(C)c(C)c1 | 707
5 | Cc1cc(C)cc(C(=O)N2CCCC(C(=O)NC3CCCC3)C2)c1 (configuration not stated) | 836
6 | O=C(CCSc1ccccc1)N1CCCC(c2nnc(-c3cccs3)o2)C1 (configuration not stated) | 837
7 | CCCC(NC(=O)c1ccc2c(c1)OCO2)C(=O)Nc1nc2ccccc2[nH]1 (configuration not stated) | 670
8 | CCn1cc(CCNC(=O)Nc2cc(C)cc(C)c2)c2cccnc21 | 705
9 | O=C(c1cc(Cl)ccc1Cl)N(CCc1cccs1)C1CC1 | 1070
10 | COc1ccc2nc(C(=O)NCc3cc(F)ccc3F)cn2n1 | 823
11 | Cc1cc(F)ccc1NC(=O)c1cc(C2CC2)on1 | 936
12 | COc1ccc(S(=O)(=O)NCc2cccnc2-c2ccc(F)cc2)cc1 | 714
13 | O=C(c1cc(C2CC2)[nH]n1)N1CC(F)(F)C[C@H]1c1nc(C2CC2)no1 | 794
14 | CCc1ccc(CNC(=O)C2CCCN(c3nc4c(s3)c(C)nn4-c3ccccc3)C2)cc1 (configuration not stated) | 1230
15 | Cn1cc(CC(=O)N2CCN(c3ccccc3F)CC2)c2ccccc21 | 915
16 | CCc1nc(N)n(CC(=O)Nc2cc(F)ccc2C)c(=O)c1C | 620
17 | Cc1ccc(CNC(=O)c2ccc3ccnc(N4CCN(c5ccc(Cl)cc5)CC4)c3c2)o1 | 887
18 | O=c1c2c(CO)c(-c3ccccc3)nn2ccn1Cc1cc(F)ccc1F | 924
19 | COc1cccc(NC(=O)C2CCN(S(C)(=O)=O)c3ccccc3O2)c1 (configuration not stated) | 810
20 | O=C(Cn1cccn1)N1CC(c2nc(-c3cccs3)no2)C1 | 644
21 | O=C(Cn1nc(N2CCCCCC2)c2ccccc2c1=O)Nc1ccc(F)c(F)c1 | 1150
22 | Cc1noc(C)c1CC(=O)N1CCC(Cc2noc(C3CC3)n2)C1 (configuration not stated) | 748
23 | CC1CCc2c(sc(NC(=O)Cc3ccc4c(c3)OCO4)c2C#N)C1 (configuration not stated) | 1070

Row | Compound | RP-LC retention time [s]
24 | O=C(Cn1nc2n(c1=O)CCCC2)N1CCN(c2ccc(F)cc2)CC1 | 651
25 | O=C(CCn1c(N2CCCC2)nc2ccsc2c1=O)Nc1cccc(Cl)c1 | 892
26 | CCCNc1cc(N2CCCC(CCC(=O)Nc3ccccc3CC)C2)ncn1 (configuration not stated) | 735
27 | Cc1cc(=O)n(CC(=O)NCc2ccc(F)cc2F)c(N2CCOCC2)n1 | 756
28 | Cc1ccc(-c2nnc(Cc3nc(-c4ccc(C(F)(F)F)cc4)no3)o2)cc1F | 1180
29 | CCOc1ccc(NC(=O)c2cn3c(n2)CCCC3)cc1 | 614
30 | CCOc1ccc(N2C(=O)CN(C(C)c3ccccc3)[C@H]3CS(=O)(=O)C[C@H]32)cc1 (some centres not stated) | 863
31 | CS(=O)(=O)N1CCN(C(=O)c2nn(CC3CC3)c3c2CNCC3)CC1 | 558
32 | O=C(c1ccco1)N1CCCC1c1nc(-c2ccc(F)cc2F)no1 (configuration not stated) | 860
33 | CN(C)S(=O)(=O)c1ccc(C(=O)NCc2ccsc2)cc1 | 730
34 | Cc1noc(-c2ccc(OC3CN(C(=O)c4cccc5[nH]ccc45)C3)cc2)n1 | 597
35 | COc1ccc(-c2cc3c(=O)n(Cc4ccccc4)ccn3n2)cc1OC | 906
36 | O=C(NCc1ccccc1F)C1CCCN(c2nc3ccsc3c(=O)n2Cc2ccccc2)C1 (configuration not stated) | 943
37 | O=C(COc1ccccc1F)Nc1ccc2c(c1)N(C(=O)c1ccco1)CCC2 | 834
38 | CC1(C(=O)NCc2cccc(F)c2)CCCN(S(=O)(=O)c2ccc(F)cc2)C1 (configuration not stated) | 948
39 | COCCNC(=O)C1CCN(c2nccc(C)n2)CC1 | 561
40 | CCn1cc(CN(C)C(=O)C2N(C(C)C)C(=O)C23CCCC3)c(C)n1 (configuration not stated) | 612
41 | COc1ccccc1C(=O)N1CCCC(c2nnc(C)s2)C1 (configuration not stated) | 646
42 | Cc1cc2[nH]c(C(=O)NCc3ccc(F)cc3)c(CN3CCOCC3)c2s1 | 689
43 | O=C(CN1C(=O)CC(c2cccs2)=Nc2ccccc21)NC1CCCCC1 | 884
44 | CC(C)N1CCN(S(=O)(=O)c2cc(-c3nnc(C4CCC4)o3)co2)CC1 | 622
45 | CC1=C(C(=O)N2CCOCC2)C(c2ccccc2Br)C2=C(CC(C)(C)CC2=O)N1 (configuration not stated) | 683
46 | CC(C(=O)N1CCCN(c2cc(=O)n(C(C)C)c(=O)n2C(C)C)CC1)N1C(=O)COc2ccccc21 (configuration not stated) | 846

Row | Compound | RP-LC retention time [s]
47 | CN1C(=O)c2cc(C(=O)NCc3cccc(Br)c3)nn2CC1(C)C(=O)NC1CCCC1 (configuration not stated) | 807
48 | CC(=O)c1cccc(NC(=O)CN2C(=O)CC(c3ccccc3)=Nc3cccnc32)c1 | 854
49 | Cc1nc(OCC(=O)Nc2ccc(Cl)cc2F)c2ccccc2n1 | 789
50 | CCCN1C(=O)c2c(C(=O)NCc3ccccc3F)ncn2CC1(C)C(=O)NCc1ccccc1 (configuration not stated) | 812
51 | COc1cccc(CC(=O)Nc2nnc(SCc3nnc(-c4ccccc4C)o3)s2)c1 | 922
52 | COc1cccc(CN2CCCCCCNC(=O)[C@@H]3CCC[C@@H]32)n1 | 660
53 | COc1ccc(C2NCCc3c2[nH]c2ccccc32)cc1O (configuration not stated) | 582
54 | O=C1C2N=NN(Cc3nc(-c4ccc(Br)cc4)no3)C2C(=O)N1c1cccc(F)c1 (configuration not stated) | 1080
55 | CSc1cccc(NC(=O)N2CCN(Cc3nc4cc(C)ccc4o3)CC2)c1 | 776
56 | CC(C)CN1C(=O)c2cccn2CC1CNC(=O)c1cccs1 (configuration not stated) | 715
57 | CCCCN1C(=O)CC2CCOC21C (configuration not stated) | 753
58 | O=C(c1cc(C2CC2)[nH]n1)N1CC(n2cc(COc3ccc(F)cc3)nn2)C1 | 735
59 | Cc1ccc(S(=O)(=O)N2C[C@@H](F)C[C@H]2C(=O)N2CCCCC2)cc1Cl | 826
60 | CC(CCc1ccccc1)NC(=O)C1CCN(Cc2cn(C)c3ccc(Cl)cc23)CC1 (configuration not stated) | 790
61 | CCOc1ccc(N2CC(c3nnc(NC(=O)c4ccc(Cl)cc4)o3)CC2=O)cc1 (configuration not stated) | 803
62 | Cc1noc(-c2ccc(=O)n(C(C)C)n2)n1 | 715
63 | Cc1ccc(CNC(=O)C2(C)CN(S(C)(=O)=O)CC(=O)N2Cc2ccc(F)cc2)cc1 (configuration not stated) | 836
64 | O=C(CCCN1CCN(Cc2ccc(F)cc2)C(=O)C1=O)NCc1ccc(F)cc1 | 721
65 | Cc1cc(C)c(C)c(S(=O)(=O)NCC(=O)N2CCN(c3ccccc3)CC2)c1C | 966
66 | CC(CCc1ccccc1)NC(=O)C1CCN(S(=O)(=O)c2ccc3c(ccn3C)c2)CC1 (configuration not stated) | 882
67 | COc1cccc(Cn2c(=O)c3sccc3n(Cc3nc(-c4ccc(F)c(Cl)c4)no3)c2=O)c1 | 1170
